Test results from patent US4479951A, “1.4;3.6-Dianhydrohexitol nitrates substituted by purine bases, processes for their preparation and pharmaceutical compositions” (Dr. Willmar Schwabe GmbH & Co., priority 1980, dated 1984).

Legend:
[1] = test system: isolated rat aorta preparations; assay: spasmolytic effectiveness, noradrenaline-induced contractions; details: read-out: ED50 noradrenaline spasm
[2] = test system: isolated rat aorta preparations; assay: spasmolytic effectiveness, potassium chloride-induced contractions; details: read-out: ED50 potassium chloride spasm
guinea pigs = assay: blood pressure-lowering effectiveness on narcotised guinea pigs, intravenous; format: in vivo, guinea pig; details: for blood pressure previously: before administration
[3] = acute toxicity, intravenous; format: in vivo; details: mouse, in vivo, iv; within 24 hours; read-out: Evaluated LD50-range
female NMRI-albino mice = assay: acute toxicity, intravenous; format: in vivo; details: within 24 hours

| Compound | IC50 [1] [nM] | IC50 [2] [nM] | blood pressure afterwards (guinea pigs; 0.25 mg/kg i.v.) [mm. Hg] | blood pressure previously (guinea pigs; 0.25 mg/kg i.v.) [mm. Hg] | blood pressure afterwards (guinea pigs; 1.00 mg/kg i.v.) [mm. Hg] | blood pressure previously (guinea pigs; 1.00 mg/kg i.v.) [mm. Hg] | blood pressure afterwards (guinea pigs; 2.50 mg/kg i.v.) [mm. Hg] | blood pressure previously (guinea pigs; 2.50 mg/kg i.v.) [mm. Hg] | blood pressure Δ (guinea pigs; 0.25 mg/kg i.v.) [mm. Hg] | blood pressure Δ (guinea pigs; 1.00 mg/kg i.v.) [mm. Hg] | blood pressure Δ (guinea pigs; 2.50 mg/kg i.v.) [mm. Hg] | LD50 at 24 h [3] [mg/kg] | Frequency of death (female NMRI-albino mice; 100 mg/kg i.v.) | Frequency of death (female NMRI-albino mice; 200 mg/kg i.v.) | Frequency of death (female NMRI-albino mice; 50 mg/kg i.v.) |
| --- | --- | --- | --- | --- | --- | --- | --- | --- | --- | --- | --- | --- | --- | --- | --- |
| O=[N+]([O-])O[C@H]1CO[C@H]2[C@@H]1OC[C@@H]2n1cnc2c(NCc3ccccc3)ncnc21 [Example 13b, 5-(6-Benzylaminopurin-9-yl)-5-desoxy-1.4;3.6-dianhydro-L-iditol 2-nitrate] | 16.8 | 2400 | – | – | – | – | – | – | – | – | – | – | – | – | – |
| O=[N+]([O-])O[C@@H]1CO[C@H]2[C@@H]1OC[C@@H]2O [ISMN, 1.4;3.6-dianhydro-D-glucitol 2-nitrate, reference compound] | – | – | 53.90 ± 3.10 | 57.60 ± 3.10 | 48.40 ± 3.20 | 54.70 ± 3.80 | 41.40 ± 3.90 | 52.30 ± 4.80 | – | – | – | – | – | – | – |
| CN1CCN(c2ncnc3c2ncn3[C@H]2CO[C@H]3[C@@H]2OC[C@@H]3O[N+](=O)[O-])CC1 [Example 9b, 5-[6-(4-Methylpiperazino)-purin-9-yl]-5-desoxy-1.4;3.6-dianhydro-L-iditol 2-nitrate] | 2650 | 25000 | 70.25 ± 8.39 | 72.50 ± 6.20 | 69.75 ± 7.44 | 73.25 ± 6.24 | 59.75 ± 4.82 | 72.50 ± 5.24 | -2.25 | -3.50 | -12.75 | 50 to 100 | 4/6 | 3/3 | – |
| CNc1ncnc2c1ncn2[C@H]1CO[C@H]2[C@@H]1OC[C@@H]2O[N+](=O)[O-] [Example 3c, 5-(6-Methylaminopurin-9-yl)-5-desoxy-1.4;3.6-dianhydro-L-iditol 2-nitrate] | 480 | 4600 | 79.25 ± 2.56 | 79.50 ± 2.50 | 71.50 ± 3.97 | 79.50 ± 2.66 | 61.50 ± 3.23 | 77.00 ± 2.80 | -0.25 | -8.00 | -15.50 | 100 to 200 | 0/6 | 3/3 | – |
| O=[N+]([O-])O[C@H]1CO[C@H]2[C@@H]1OC[C@@H]2n1cnc2c(N3CCOCC3)ncnc21 [Example 8b, 5-(6-Morpholinopurin-9-yl)-5-desoxy-1.4;3.6-dianhydro-L-iditol 2-nitrate] | 290 | 3000 | – | – | – | – | – | – | – | – | – | – | – | – | – |
| Cn1c(=O)c2c(ncn2[C@H]2CO[C@H]3[C@@H]2OC[C@@H]3O[N+](=O)[O-])n(C)c1=O [Example 12b, 5-(7-Theophyllinyl)-5-desoxy-1.4;3.6-dianhydro-L-iditol 2-nitrate] | 3200 | 4200 | – | – | – | – | – | – | – | – | – | – | – | – | – |
| CC(C)(C)C(=O)Nc1ncnc2c1ncn2[C@H]1CO[C@H]2[C@@H]1OC[C@@H]2O[N+](=O)[O-] [Example 10, 5-[9-(6-N-Pivaloyl)-adenyl]-5-desoxy-1.4;3.6-dianhydro-L-iditol 2-nitrate] | 302 | 6500 | – | – | – | – | – | – | – | – | – | – | – | – | – |
| O=[N+]([O-])O[C@H]1CO[C@H]2[C@@H]1OC[C@@H]2n1cnc2c(N3CCCC3)ncnc21 [Example 6b, 5-(6-Pyrrolidinopurin-9-yl)-5-desoxy-1.4;3.6-dianhydro-L-iditol 2-nitrate] | 540 | 4070 | 51.50 ± 4.94 | 65.00 ± 4.02 | 44.75 ± 2.84 | 65.50 ± 2.36 | 37.25 ± 1.11 | 62.00 ± 2.04 | -13.50 | -20.75 | -24.75 | 50 to 100 | 3/3 | 3/3 | 0/3 |
| O=[N+]([O-])O[C@H]1CO[C@H]2[C@@H]1OC[C@@H]2n1cnc2c(N3CCCCC3)ncnc21 [Example 7b, 5-(6-Piperidinopurin-9-yl)-5-desoxy-1.4;3.6-dianhydro-L-iditol 2-nitrate] | 240 | 2900 | – | – | – | – | – | – | – | – | – | – | – | – | – |
| CCNc1ncnc2c1ncn2[C@H]1CO[C@H]2[C@@H]1OC[C@@H]2O[N+](=O)[O-] [Example 5b, 5-(6-Ethylaminopurin-9-yl)-5-desoxy-1.4;3.6-dianhydro-L-iditol 2-nitrate] | 380 | 13000 | 71.00 ± 5.04 | 76.50 ± 2.66 | 65.75 ± 3.75 | 78.50 ± 1.70 | 51.00 ± 3.13 | 76.25 ± 2.59 | -5.50 | -12.75 | -25.25 | 50 to 100 | 3/6 | 3/3 | 1/11 |
| CN(C)c1ncnc2c1ncn2[C@H]1CO[C@H]2[C@@H]1OC[C@@H]2O[N+](=O)[O-] [Example 4b, 5-(6-Dimethylaminopurin-9yl)-5-desoxy-1.4;3.6-dianhydro-L-iditol 2-nitrate] | 220 | 29000 | 63.25 ± 4.23 | 73.75 ± 2.14 | 59.00 ± 1.47 | 74.00 ± 1.91 | 43.50 ± 2.50 | 72.00 ± 2.45 | -10.50 | -15.00 | -28.50 | 50 to 100 | 3/3 | 3/3 | 0/3 |
